# Results from publication PMC8344233, “Anticancer activity and toxicity of new quaternary ammonium geldanamycin derivative salts and their mixtures with potentiators” (Journal of Enzyme Inhibition and Medicinal Chemistry, 2021).
# Key:
# HepG2 = assay: MTT cytotoxicity assay, HepG2 (1st panel); assay type: cell-based, human
# Method: (§1) Cell survival was measured as the percentage absorbance compared to the control (nontreated cells). […]
# (§2) SI indexes were calculated from equation SI = IC50 normal cell line HDF/IC50 respective cancerous cell line (Table 2). A beneficial SI > 1.0 indicates a compound with efficacy against tumor cell greater than the toxicity against normal cells.
# (§3) All experiments were carried out with human breast adenocarcinoma (MDA-MB-231 and MCF-7), hepatocellular carcinoma (HepG2), human cervical adenocarcinoma (HeLa) cancer cell lines, and human normal lung fibroblast (CCD39Lu) cell line. The cell line was purchased from the European Collection of Cells Cultures (ECACC, Salisbury, UK), and cultured in DMEM with phenol red supplemented with 10% (v/v) FBS, 1% (v/v) penicillin/streptomycin, and 1% (v/v) L-glutamine at 37 °C, in a humidified atmosphere containing 5% CO2.
# (§4) The tested compounds were dissolved in DMSO to the final concentration 10 mM and stored […]
# (§5) The cytotoxic effect of the tested compounds was determined by MTT assay. MDA-MB-231, MCF-7, HepG2, HeLa, and CCD39Lu cells were seeded in 96 wells plates at density 2x10^4 cells/well and incubated overnight under cell culture condition. Next, cells were treated with tested compounds at concentrations of 10 µM; 5 µM; 2.5 µM; 1.2 µM; 0.6 µM; 0.3 µM; 0.15 […]
# (§6) µM. Moreover, GDM (for MCF-7) and 8 (for MCF-7 and MDA-MB-231) due to high cytotoxicity, were additionally tested at a lower concentration range of 2.5 µM; 1.2 µM; 0.6 µM; 0.3 µM; 0.15µM; 0.07 µM; 0.03 µM. DMSO was used as a control, and the concentration […]
# (§7) Tested compounds were added to cells in the medium without phenol red. Cells were incubated 72 h at 37 °C in a humidified atmosphere containing 5% CO2.
# (§8) Then, the medium was aspirated and MTT solution at a concentration of 0.59 mg/mL in cell culture medium was added to each well. Plates were incubated for 1.5 hours at 37 °C, and then plates were centrifuged for 3 minutes. The formazan crystals were dissolved in 200 µl DMSO and plates were agitated on a plate shaker at 300 –500 rpm for 10 minutes. Absorbance at 570 nm was measured using a plate reader (Biotek Instruments, Elx -800). Data were normalized to the mean absorption of control cells. All experiments were performed at least three times. […]
# HeLa = assay: MTT cytotoxicity assay, HeLa (1st panel); assay type: cell-based, human
# Method: as §1, §2, §3, §4, §5, §6, §7, §8
# SKOV-3 = assay: SRB cytotoxicity assay, SKOV-3 (2nd panel); assay type: cell-based, human
# Method: (§9) Human cancer cells SKBR-3 (human breast cancer cell line) and SKOV-3 (ovarian cancer cell line) were cultured in McCoy’s Modified Medium. […]
# (§10) Medium. Human Dermal Fibroblasts cell line (HDF) was cultured in Fibroblast Basal Medium.
# (§11) Each medium was supplemented with 10% fetal bovine serum, 1% L-glutamine, and 1% penicillin/streptomycin solution. The cell lines were kept in the incubator at 37◦C. The optimal plating density of cell lines was determined to be 5 × 104. All the cell lines and mediums were obtained from American Type Culture Collection (ATCC) supplied by LGC-Standards. The protein-staining SRB (Sigma-Aldrich) microculture colorimetric assay, developed by the National Cancer Institute (USA) for in vitro antitumor screening was used in this study, to estimate the cell number by providing a sensitive index of total cellular protein content, being linear to cell density. The monolayer cell culture was trypsinized and the cell count was adjusted to 5 × 10^4 cells. To each well of the 96 well microtiter plate, 0.1 mL of the diluted cell suspension (approximately […]) was added. After 24 hours, when a partial monolayer was formed, the supernatant was washed out and 100 μL of six different compound concentrations (0.1, 0.2, 1, 2, 10, and 20 μM) were added to the cells in microtitre plates. The tested compounds were dissolved in DMSO (containing 10 % of water) (100 μL) and the […]
# (§12) lines. The cells were exposed to compounds for 72 hours at 37 °C in a humidified atmosphere (90% RH) containing 5% CO2. After that, 25 μL of 50 % trichloroacetic acid was added to the wells and the plates were incubated for 1 hour at 4◦C. The plates were then washed out with the distilled water to remove traces of medium and next dried by the air. The air-dried plates were stained with 100 μL of 0.4% sulforhodamine B (prepared in 1 % acetic acid) and kept for 30 minutes at room temperature. The unbound dye was removed by rapidly washing with 1% […]
# (§13) acetic acid and then air dried overnight. The protein-bound dye was dissolved in 100 μL of 10 mM unbuffered Tris base (pH 10.5) for optical density determination at 490 nm. All cytotoxicity experiments were performed three times. Cell survival was measured as the percentage absorbance compared to the control (nontreated cells). Cytarabine (ara-C) and GDM were used as the internal standards. Additionally biological assays were performed in Human Dermal Fibroblasts cell line (HDF) in aim to evaluate cytotoxicity of GDM and its 1-13 analogs in healthy cells. SI indexes were calculated from equation SI = IC50 normal cell line HDF/IC50 respective cancerous cell line (Table 2). A beneficial SI > 1.0 indicates a compound with efficacy against tumor cell greater than the toxicity against normal cells. […]
# SKBR-3 = assay: SRB cytotoxicity assay, SKBR-3 (2nd panel); assay type: cell-based, human
# Method: as §9, §10, §11, §12, §13
# A-549 = assay: SRB cytotoxicity assay, A-549 (2nd panel); assay type: cell-based, human
# Method: as §10, §11, §12, §13
# HDF = assay: SRB cytotoxicity assay, human dermal fibroblasts HDF; assay type: cell-based; conditions: 72 h, ± SD, mixtures equimolar 1:1, read-out: IC50 HDF (toxicity in normal cells)
# Method: as §10, §11, §12, §13
# U-87 = assay: SRB cytotoxicity assay, U-87 (2nd panel); assay type: cell-based, human
# Method: U-87MG cells (glioblastoma cell line) were cultured in Eagle’s Minimal Essential Medium. Human Dermal Fibroblasts cell line (HDF) was cultured in Fibroblast Basal Medium.
# as §11, §12, §13
# CCD39Lu = assay: MTT cytotoxicity assay, normal lung fibroblasts CCD39Lu; assay type: cell-based; conditions: Fibroblast, ± SD, healthy human lung fibroblasts, 72 h, read-out: IC50 CCD39Lu (toxicity in normal cells)
# Method: as §1, §2, §3, §4, §5, §6, §7, §8
# MCF-7 = assay: MTT cytotoxicity assay, MCF-7 (1st panel); assay type: cell-based, human
# Method: as §1, §2, §3, §4, §5, §6, §7, §8
# MDA-MB-231 = assay: MTT cytotoxicity assay, MDA-MB-231 (1st panel); assay type: cell-based, human
# Method: as §1, §2, §3, §4, §5, §6, §7, §8
# PC-3 = assay: SRB cytotoxicity assay, PC-3 (2nd panel); assay type: cell-based, human
# Method: as §10, §11, §12, §13
smiles,measurement,setting,value
"COC1=C2C[C@@H](C)C[C@H](OC)[C@H](O)[C@@H](C)/C=C(\C)[C@H](OC(N)=O)[C@@H](OC)/C=C\C=C(/C)C(=O)NC(=CC1=O)C2=O [GDM, Geldanamycin]",IC50,"HepG2; Homo sapiens, HepG2, ± SD, MTT, 72 h",0.74 ± 0.32 µM
same,selectivity index SI (HepG2),HepG2; IC50 normal cell line CCD39Lu/IC50 HepG2,11.48
same,IC50,"HeLa; Homo sapiens, HeLa, ± SD, MTT, 72 h",1.42 ± 0.1 µM
same,selectivity index SI (HeLa),HeLa; IC50 normal cell line CCD39Lu/IC50 HeLa,5.99
same,IC50,"SKOV-3; Homo sapiens, SK-OV-3, ± SD, SRB, 72 h, mixtures equimolar 1:1",0.94 ± 0.09 µM
same,selectivity index SIHDF (SKOV-3),SKOV-3; IC50 normal cell line HDF/IC50 SKOV-3,2.27
same,IC50,"SKBR-3; Homo sapiens, SK-BR-3, ± SD, SRB, 72 h, mixtures equimolar 1:1",0.87 ± 0.17 µM
same,selectivity index SIHDF (SKBR-3),SKBR-3; IC50 normal cell line HDF/IC50 SKBR-3,2.45
same,IC50,"A-549; Homo sapiens, A549, ± SD, SRB, 72 h",0.99 ± 0.01 µM
same,selectivity index SIHDF (A-549),A-549; IC50 normal cell line HDF/IC50 A-549,2.15
same,CC50,HDF,2.13 ± 0.11 µM
same,Solubility SH2O,Water solubility SH2O,almost water-insoluble
same,IC50,"U-87; Homo sapiens, U-87 MG, ± SD, SRB, 72 h",0.81 ± 0.12 µM
same,selectivity index SIHDF (U-87),U-87; IC50 normal cell line HDF/IC50 U-87,2.62
same,IC50,CCD39Lu,8.5 ± 0.25 µM
same,IC50,"MCF-7; Homo sapiens, MCF7, 72 h, ± SD, MTT, 72 h",3.51 ± 0.21 µM
same,selectivity index SI (MCF-7),MCF-7; IC50 normal cell line CCD39Lu/IC50 MCF-7,2.42
same,IC50,"MDA-MB-231; Homo sapiens, MDA-MB-231, ± SD, MTT, 72 h",1.04 ± 0.63 µM
same,selectivity index SI (MDA-MB-231),MDA-MB-231; IC50 normal cell line CCD39Lu/IC50 MDA-MB-231,8.17
same,IC50,"PC-3; Homo sapiens, PC-3, ± SD, SRB, 72 h, mixtures equimolar 1:1",0.73 ± 0.01 µM
same,selectivity index SIHDF (PC-3),PC-3; IC50 normal cell line HDF/IC50 PC-3,2.92
